Measured values as given in US20210386367A1, “DEVICES AND SYSTEMS FOR GASTROINTESTINAL MICROBIOME DETECTION AND MANIPULATION” (Progenity, Inc., priority 2018, published 2021).
Converted amounts (≈) assume the structure as drawn. Where two headings read alike, the source gives them in different places.

Columns and labels:
Type in all cases: cell-based
[1] = tested on: Viridans group Streptococci clinical isolates; assay: MIC distribution against clinical isolates; settings: 15 Viridans group Streptococci isolates
From the text: (§1) As used herein, “minimum inhibitory concentration” or “MIC” refers to the lowest concentration of an antimicrobial agent, for example, an antimicrobial agent as described herein, required to inhibit the growth of an organism. […] “MIC90” represents the MIC value at which ≥90% of the strains within a test population are inhibited; the 90th percentile.
(§2) Many susceptibility testing methods are known in the art and can be used as described herein (see, e.g., Jorgensen and Ferraro (2009) Clinical Infectious Diseases 49:1749-1755; and Maurer et al. (2017) Infectious Disease Reports 9:6839; the entire contents of each of the foregoing are incorporated herein by reference). For example, antimicrobial susceptibility can be determined using conventional culture based methods such as the broth or agar dilution test. In these dilution tests, the bacterial isolate of interest is inoculated onto different media that include serial dilutions of an antimicrobial agent, and incubated under appropriate conditions (e.g., overnight at 37° C.) to allow for growth to occur. Following the incubation period, the media is examined to determine bacterial growth. The lowest concentration of antibiotic that prevents growth represents the minimal inhibitory concentration (MIC). Broth dilution tests can be miniaturized and mechanized allowing for reproducibility and high throughput.

Enterococcus faecalis = assay: Broth microdilution MIC, 50 clinical isolates
Procedure: (§3) Minimal inhibitory concentration (MIC) values were determined by broth microdilution or agar dilution in accordance with guidelines from the Clinical and Laboratory Standards Institute (CLSI; (1) “Methods for Dilution Antimicrobial Susceptibility Tests for Bacteria That Grow Aerobically; Approved Standard; 11th ed.” CLSI standard M07-A11, 2018; (2) “Performance Standards for Antimicrobial Susceptibility Testing; Twenty-Eighth Informational Supplement,” CLSI document M100-S28, 2018; and (3) “Methods for Antimicrobial Susceptibility Testing of Anaerobic Bacteria; Approved Standard—Eighth Edition,” CLSI document M11-A8, 2012).
(§4) Tested aerobically by broth microdilution: • Escherichia coli, n=50 • Klebsiella spp., n=50 • Pseudomonas aeruginosa, n=50 • Streptococcus spp., n=50 • Staphylococcus aureus, n=50 • Enterococcus faecalis, n=50 • Enterobacter aerogenes, n=50 • Proteus mirabilis, n=50
(§5) Broth microdilution testing of aerobic bacteria was conducted in cation-adjusted Mueller Hinton broth (MHBII). For testing streptococci, lysed horse blood (LHB) was added to MHBII broth at a final concentration of 3%. Where LHB was used, it was added after filtering.
(§6) Broth microdilution susceptibility testing in 96-well microplates was conducted in accordance with CLSI methods (1) and (2). Automated liquid handlers were used to conduct serial dilutions and liquid transfers, including the Multidrop 384 (Labsystems, Helsinki, Finland), Biomek 2000, and the Biomek FX (Beckman Coulter, Fullerton, Calif.). All wells in columns 2 through 12 of a standard 96-well microdilution plate (Costar 3795) were filled with 150 μL of the appropriate diluent. Then, 300 μL of the test agents were added to the wells of column 1 of the plates at 100× the highest final concentration to be tested. Serial two-fold dilutions were made across the rows through column 11 using the Biomek 2000. The wells of column 12 contained no drug and served as the growth control wells. This plate served as the “mother plate” from which MIC assay plates or “daughter plates” were made.
(§7) The daughter plates were loaded with 190 μL per well of the appropriate medium using the Multidrop 384. The daughter plates were created using the Biomek FX which transferred 2 μL of drug solution from each well of a mother plate to each corresponding well of the daughter plate in a single step. A standardized inoculum of each test organism was prepared per CLSI methods (1) to equal a 0.5 McFarland standard, followed by a dilution of 1:20 for aerobes and 1:10 for anaerobes. The plates were then inoculated with 10 μL of the diluted inoculum using the Biomek 2000 from low to high drug concentration, resulting in a final concentration of approximately 5×10^5 CFU/mL per well. An un-inoculated plate was incubated in parallel for each medium for the purpose of assessing solubility of the drug in the test media.
(§8) Inoculated plates were stacked 3 or 4 high, covered with a sterile lid on the top plate, placed into boxes with CO2 planchets (streptococci) or plastic bags (all other isolates). Plates were incubated at 35° C. for 16-24 hr in ambient air for aerobes or for 42-48 hr in the anaerobic environment of the Bactron II anaerobe chamber (Sheldon Manufacturing Co.; Cornelius, Oreg.). Following incubation, the microplates were removed from the incubator and viewed from the bottom using a plate viewer. The MIC values were read and recorded as the lowest concentration of drug that inhibited visible growth of the organism as per CLSI methods (1) and (2).

Staphylococcus aureus = assay: Broth microdilution MIC, 50 clinical isolates (28 MRSA)
Procedure: as §3, §4, §5, §6, §7, §8

Streptococcus spp. = assay: Broth microdilution MIC, 54 clinical isolates; settings: for Mode: modal MIC
Procedure: as §3, §4, §5, §6, §7, §8

Streptococcus pyogenes = assay: Broth microdilution MIC, 19 clinical isolates
Procedure: as §3, §4, §5, §6, §7, §8

Streptococcus agalactiae = assay: Broth microdilution MIC, 20 clinical isolates; settings: for Mode: modal MIC
Procedure: as §3, §4, §5, §6, §7, §8

[2] = tested on: Viridans group Streptococcus; assay: Broth microdilution MIC, 15 clinical isolates; settings: for Mode: modal MIC
Procedure: as §3, §4, §5, §6, §7, §8

[3] = tested on: Streptococcus spp. clinical isolates; assay: MIC distribution against clinical isolates; settings: 54 Streptococcus spp. isolates
From the text: (n=19 S. pyogenes, n=20 S. agalactiae and n=20 Viridans group Streptococcus) clinical isolates (μg/mL).
as §1, §2

[4] = 54 Streptococcus spp. clinical isolates
[5] = 20 Streptococcus agalactiae clinical isolates
[6] = 15 Viridans group Streptococci clinical isolates
[7] = 54 Streptococcus spp. clinical isolates, MXF by FDA breakpoints
[8] = 15 Viridans group Streptococci clinical isolates, MXF by FDA breakpoints

Compound | MIC50 (Streptococcus spp.; [4]) | MIC90 (Streptococcus spp.; [4]) | MIC range (Streptococcus spp.; [4]) | Mode (Streptococcus spp.; [4]) | MIC50 (Streptococcus pyogenes) | MIC90 (Streptococcus pyogenes) | MIC range (Streptococcus pyogenes) | Mode (Streptococcus pyogenes) | MIC50 (Streptococcus agalactiae; [5]) | MIC90 (Streptococcus agalactiae; [5]) | MIC range (Streptococcus agalactiae; [5]) | Mode (Streptococcus agalactiae; [5]) | MIC50 [2, 6] | MIC90 [2, 6] | MIC range [2, 6] | Mode [2, 6] | other results
CO[C@H]1/C=C/O[C@@]2(C)Oc3c(C)c(O)c4c(O)c(c5c(nc6cc(C)ccn65)c4c3C2=O)NC(=O)/C(C)=C\C=C\[C@H](C)[C@H](O)[C@@H](C)[C@@H](O)[C@@H](C)[C@H](OC(C)=O)[C@@H]1C [rifaximin] | 0.12 mg/L (≈ 0.153 µM) | 0.25 mg/L (≈ 0.318 µM) | 0.015 to 0.3 µg/mL | 0.12 µg/mL | 0.06 mg/L (≈ 0.0763 µM) | 0.25 mg/L (≈ 0.318 µM) | 0.015 to 0.25 µg/mL | 0.06 µg/mL | 0.12 mg/L (≈ 0.153 µM) | 0.12 mg/L (≈ 0.153 µM) | 0.12 to 0.25 mg/L | 0.12 µg/mL | 0.06 mg/L (≈ 0.0763 µM) | 0.12 mg/L (≈ 0.153 µM) | 0.015 to 0.1 mg/L | 0.06 µg/mL | Number of test isolates at MIC ([1]; MIC 0.06 μg/mL): 6; MIC50 (Enterococcus faecalis): 2 mg/L (≈ 2.54 µM); MIC90 (Enterococcus faecalis): 4 mg/L (≈ 5.09 µM); Mode (Enterococcus faecalis): 1 µg/mL; relative activity among drugs tested (Enterococcus faecalis): slightly more active than meropenem; MIC50 (Staphylococcus aureus): 0.015 mg/L (≈ 0.0191 µM); MIC90 (Staphylococcus aureus): 0.06 mg/L (≈ 0.0763 µM); MIC range (Staphylococcus aureus): 0.008 to 32 mg/L; Mode (Staphylococcus aureus): 0.015 µg/mL; relative activity among drugs tested (Staphylococcus aureus): most active drug tested; MIC50 (Streptococcus spp.): 0.12 mg/L (≈ 0.153 µM); MIC90 (Streptococcus spp.): 0.25 mg/L (≈ 0.318 µM); MIC50 (Streptococcus agalactiae): 0.12 mg/L (≈ 0.153 µM); MIC90 (Streptococcus agalactiae): 0.12 mg/L (≈ 0.153 µM); MIC50 [2]: 0.06 mg/L (≈ 0.0763 µM); MIC90 [2]: 0.12 mg/L (≈ 0.153 µM)
Penicillin | 0.03 mg/L | 0.25 mg/L | ≤0.004-1^ μg/mL | 0.03 µg/mL | <0.004 mg/L | 0.008 mg/L | ≤0.004-0.03^ μg/mL | <0.004 µg/mL | 0.03 mg/L | 0.03 mg/L | 0.015 to 0.06 mg/L | 0.03 µg/mL | 0.03 mg/L | 1 mg/L | 0.008 to 1 mg/L | 0.015 µg/mL | Cumulative percentage of isolates inhibited at MIC ([3]; MIC 0.008 μg/mL): 35.2%; Number of test isolates at MIC ([3]; MIC 0.008 μg/mL): 9; Cumulative percentage of isolates inhibited at MIC ([3]; MIC 1 μg/mL): 100.0%; Cumulative percentage of isolates inhibited at MIC ([3]; MIC ≤0.004 μg/mL): 18.5%; Number of test isolates at MIC ([3]; MIC ≤0.004 μg/mL): 10; Cumulative percentage of isolates inhibited at MIC ([1]; MIC 0.008 μg/mL): 6.7%; Number of test isolates at MIC ([1]; MIC 0.008 μg/mL): 1; Cumulative percentage of isolates inhibited at MIC ([1]; MIC 1 μg/mL): 100.0%; % I (Streptococcus spp.; [7]): 11% ^; % S (Streptococcus spp.; [7]): 89%; % S (Streptococcus pyogenes): 100%; % S (Streptococcus agalactiae; 20 Streptococcus agalactiae clinical isolates, MXF by FDA breakpoints): 100%; % I [2, 8]: 40% ^; % S [2, 8]: 60%
